Values of other authors, collected in patent US20050060811A1, “Fabric care article and method for conserving energy” (The Procter & Gamble Company, priority 2000, published 2005).

Settings: for water solubility: in water

Structure (SMILES)	water solubility	solubility in water
OCCOc1ccccc1 [2-phenoxyethanol]	about 2.67%	
OCCc1ccccc1 [2-phenylethanol]	about 2%	
O=[N+]([O-])C1(Br)COCOC1 [Bronidox L, 5-bromo-5-nitro-1,3-dioxane]	about 0.46%	
O=[N+]([O-])C(Br)(CO)CO [Bronopol, 2-bromo-2-nitropropane-1,3-diol]	about 25%	
CC1(C)C(=O)N(CO)C(=O)N1CO [DMDM hydantoin, 1,3-bis(hydroxymethyl)-5,5-dimethyl-2,4-imidazolidinedione]	more than 50%	
ClC=CC[N+]12CN3CN(CN(C3)C1)C2.[Cl-] [Dowicil 200, 1-(3-Chlorallyl)-3,5,7-triaza-1-azoniaadamantane chloride]		freely soluble in water
OCc1ccccc1 [benzyl alcohol]	about 4%	
[H]/N=C(\N/C(=N/[H])NCCCCCCNC(=N)NC(=N)Nc1ccc(Cl)cc1)Nc1ccc(Cl)cc1 [chlorhexidine diacetate, 1,1′-hexamethylene bis(5-(p-chlorophenyl)biguanide)]	about 1.8%	
[H]/N=C(\N/C(=N/[H])NCCCCCCNC(=N)NC(=N)Nc1ccc(Cl)cc1)Nc1ccc(Cl)cc1 [chlorhexidine digluconate, 1,1′-hexamethylene bis(5-(p-chlorophenyl)biguanide)]	about 70%	
CC(C)(O)C(Cl)(Cl)Cl [chlorobutanol, 1,1,1-Trichloro-2-methylpropan-2-ol]	about 0.8%	
[Na+].[O-][n+]1ccccc1[S-] [sodium pyrithione]	about 50%	
